In PubChem BioAssay AID248 (DTP/NCI, 2004):
Toxic doses and inconclusive results are not listed. Cut-off read from the data, not from the text of the source: active = T/C of 150% or more; inactive = T/C below 125%.

Test system: L1210 leukemia ip in BDF1 mice, survival T/C
Experiment: NCI In Vivo Anticancer Drug Screen. Data for tumor model L1210 Leukemia (intraperitoneal) in B6D2F1 (BDF1) mice
Conditions: endpoint: mean survival time, higher = longer survival
Procedure, shortened: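 Transplanted-tumor mice were given test agent; controls received vehicle only. Survival readings from the two groups were divided (treated over control).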

[1] = dose: 100.0 mg/kg/injection, schedule: Q01DX009 (ip), vehicle: saline with Tween-80
[2] = dose: 100.0 mg/kg/injection, schedule: Q04DX003 (ip), vehicle: saline with Tween-80
[3] = dose: 200.0 mg/kg/injection, schedule: Q01DX009 (ip), vehicle: saline with Tween-80
[4] = dose: 200.0 mg/kg/injection, schedule: Q04DX003 (ip), vehicle: saline with Tween-80
[5] = dose: 400.0 mg/kg/injection, schedule: Q01DX009 (ip), vehicle: saline with Tween-80
[6] = dose: 400.0 mg/kg/injection, schedule: Q04DX003 (ip), vehicle: saline with Tween-80
[7] = dose: 100.0 mg/kg/injection, schedule: Q04DX002 (ip), vehicle: saline with Tween-80
[8] = dose: 200.0 mg/kg/injection, schedule: Q04DX002 (ip), vehicle: saline with Tween-80
[9] = dose: 400.0 mg/kg/injection, schedule: Q04DX002 (ip), vehicle: saline with Tween-80
[10] = dose: 50.0 mg/kg/injection, schedule: Q01DX001 (ip), vehicle: saline
[11] = dose: 100.0 mg/kg/injection, schedule: Q01DX001 (ip), vehicle: saline
[12] = dose: 200.0 mg/kg/injection, schedule: Q01DX001 (ip), vehicle: saline
[13] = dose: 100.0 mg/kg/injection, schedule: Q04DX003 (ip), vehicle: saline
[14] = dose: 200.0 mg/kg/injection, schedule: Q04DX003 (ip), vehicle: saline
[15] = dose: 400.0 mg/kg/injection, schedule: Q04DX003 (ip), vehicle: saline
[16] = dose: 100.0 mg/kg/injection, schedule: Q04DX003 (ip), vehicle: Klucel (hydroxypropylcellulose) (HPC)
[17] = dose: 200.0 mg/kg/injection, schedule: Q04DX003 (ip), vehicle: Klucel (hydroxypropylcellulose) (HPC)
[18] = dose: 400.0 mg/kg/injection, schedule: Q04DX003 (ip), vehicle: Klucel (hydroxypropylcellulose) (HPC)
[19] = dose: 400.0 mg/kg/injection, schedule: Q01DX001 (ip), vehicle: saline
[20] = dose: 100.0 mg/kg/injection, schedule: Q01DX001 (ip), vehicle: carboxymethylcellulose (CMC)
[21] = dose: 200.0 mg/kg/injection, schedule: Q01DX001 (ip), vehicle: carboxymethylcellulose (CMC)
[22] = dose: 25.0 mg/kg/injection, schedule: Q04DX003 (ip), vehicle: Klucel (hydroxypropylcellulose) (HPC)
[23] = dose: 50.0 mg/kg/injection, schedule: Q04DX003 (ip), vehicle: Klucel (hydroxypropylcellulose) (HPC)

Measured: T/C

CC(C)(C1c2ccccc2C(=NO)c2ccccc21)[N+](=O)[O-] (centres undefined)
inactive: [1] 98 % of control | [2] 95 % of control | [3] 94 % of control | [4] 95 % of control | [5] 94 % of control | [6] 98 % of control

O=C(O)CCc1ccc(-c2cccc([N+](=O)[O-])c2)o1
inactive: [7] 102 % of control | [8] 105 % of control | [9] 98 % of control

COC1CC(N=[N+]=[N-])C(OC(=O)c2ccccc2)C(C)O1 (centres undefined)
inactive: [1] 110 % of control | [2] 96 % of control | [3] 102 % of control | [4] 100 % of control | [5] 98 % of control | [6] 102 % of control

CN(C)C(=O)C(c1ccccc1)[P+](C)(c1ccccc1)c1ccccc1 (centres undefined)
inactive: dose: 75.0 mg/kg/injection, schedule: Q01DX001 (ip), vehicle: other 95 % of control

C#CCn1c(=O)c2c(ncn2C)n(C)c1=O
inactive: dose: 6.25 mg/kg/injection, schedule: Q04DX003 (ip), vehicle: saline 100 % of control

COc1ccc(N(CCO)CCO)cc1
inactive: [10] 96 % of control | [11] 102 % of control | [12] 96 % of control

Cc1ccc2ccccc2n1
inactive: [13] 91 % of control | [14] 93 % of control | [15] 98 % of control

CCOc1ccc(/C=C2\N=C(c3ccccc3)OC2=O)cc1
inactive: dose: 100.0 mg/kg/injection, schedule: Q01DX009 (ip), vehicle: Klucel (hydroxypropylcellulose) (HPC) 98 % of control | [16] 100 % of control | dose: 200.0 mg/kg/injection, schedule: Q01DX009 (ip), vehicle: Klucel (hydroxypropylcellulose) (HPC) 88 % of control | [17] 100 % of control | dose: 400.0 mg/kg/injection, schedule: Q01DX009 (ip), vehicle: Klucel (hydroxypropylcellulose) (HPC) 93 % of control | [18] 98 % of control

C1CCNNC1
inactive: [11] 104 % of control | [13] 114 % of control | [12] 98 % of control | [14] 94 % of control | [19] 95 % of control | [15] 89 % of control

C1CC[C@@H]2NCCC[C@H]2C1
inactive: [20] 103 % of control | [21] 92 % of control

COc1cc(/C=C(/C#N)C(=O)N2CCOCC2)cc(OC)c1OC
inactive: [1] 87 % of control | [7] 90 % of control | [3] 93 % of control | [8] 104 % of control | [5] 93 % of control | [9] 101 % of control

CC(C)NCc1ccccc1
inactive: [7] 95 % of control | [8] 98 % of control

CCOC(=O)CN1C(C)C1C(C)C (centres undefined)
inactive: [16] 114 % of control | [17] 100 % of control | [18] 104 % of control

Cc1ccc(N=C=Nc2ccc(C)cc2)cc1
inactive: [22] 105 % of control | [23] 97 % of control | [16] 90 % of control

O=C1NC(=O)C(c2ccc(O)cc2)N1 (centres undefined)
inactive: [10] 105 % of control | [11] 100 % of control | [1] 91 % of control | [2] 103 % of control | [12] 97 % of control | [3] 87 % of control | [4] 100 % of control | [19] 108 % of control | [6] 94 % of control

COc1cc(OC)c(-c2nc3cc(Cl)ccc3c(=O)o2)cc1OC
inactive: dose: 87.5 mg/kg/injection, schedule: Q01DX009 (ip), vehicle: Klucel (hydroxypropylcellulose) (HPC) 114 % of control | dose: 175.0 mg/kg/injection, schedule: Q01DX009 (ip), vehicle: Klucel (hydroxypropylcellulose) (HPC) 98 % of control | dose: 350.0 mg/kg/injection, schedule: Q01DX009 (ip), vehicle: Klucel (hydroxypropylcellulose) (HPC) 93 % of control

O=S(=O)(Cl)C1c2ccccc2-c2ccccc21
inactive: dose: 100.0 mg/kg/injection, schedule: Q04DX002 (ip), vehicle: other 104 % of control | dose: 200.0 mg/kg/injection, schedule: Q04DX002 (ip), vehicle: other 96 % of control | dose: 400.0 mg/kg/injection, schedule: Q04DX002 (ip), vehicle: other 90 % of control

CC1(C)CC(OP(=O)(N2CC2)N2CC2)CC(C)(C)N1O
inactive: dose: 50.0 mg/kg/injection, schedule: Q01DX001 (ip), vehicle: water 102 % of control | dose: 100.0 mg/kg/injection, schedule: Q01DX001 (ip), vehicle: water 98 % of control | dose: 200.0 mg/kg/injection, schedule: Q01DX001 (ip), vehicle: water 102 % of control

O=[N+]([O-])c1ccc(N/N=C/C23CC4CC(CC(C4)C2)C3)c([N+](=O)[O-])c1
inactive: dose: 3.12 mg/kg/injection, schedule: Q04DX002 (ip), vehicle: Klucel (hydroxypropylcellulose) (HPC) 121 % of control | dose: 6.25 mg/kg/injection, schedule: Q04DX002 (ip), vehicle: Klucel (hydroxypropylcellulose) (HPC) 110 % of control | dose: 12.5 mg/kg/injection, schedule: Q04DX002 (ip), vehicle: Klucel (hydroxypropylcellulose) (HPC) 113 % of control | dose: 25.0 mg/kg/injection, schedule: Q04DX002 (ip), vehicle: Klucel (hydroxypropylcellulose) (HPC) 94 % of control | dose: 100.0 mg/kg/injection, schedule: Q01DX001 (ip), vehicle: Klucel (hydroxypropylcellulose) (HPC) 98 % of control

C[N+](C)(C)CCCN1c2ccccc2S(=O)c2ccc(Cl)cc21 (centres undefined)
inactive: [20] 100 % of control | [21] 103 % of control | dose: 400.0 mg/kg/injection, schedule: Q01DX001 (ip), vehicle: carboxymethylcellulose (CMC) 103 % of control

CC(F)C1CCCC(F)C1 (centres undefined)
inactive: [11] 103 % of control | [12] 100 % of control | [19] 105 % of control

CCCCCCCOCc1ccccc1
inactive: [13] 111 % of control | dose: 200.0 mg/kg/injection, schedule: Q04DX003 (ip), vehicle: acetone 94 % of control | dose: 300.0 mg/kg/injection, schedule: Q04DX003 (ip), vehicle: acetone 96 % of control | [15] 97 % of control

Oc1ccccc1C=NCCN=Cc1ccccc1O.[Cu]
inactive: dose: 100.0 mg/kg/injection, schedule: Q01DX001 (ip), vehicle: other 97 % of control | dose: 100.0 mg/kg/injection, schedule: Q04DX002 (ip), vehicle: saline 99 % of control | dose: 200.0 mg/kg/injection, schedule: Q01DX001 (ip), vehicle: other 103 % of control | dose: 200.0 mg/kg/injection, schedule: Q04DX002 (ip), vehicle: saline 99 % of control | dose: 400.0 mg/kg/injection, schedule: Q01DX001 (ip), vehicle: other 94 % of control | dose: 400.0 mg/kg/injection, schedule: Q04DX002 (ip), vehicle: saline 96 % of control

N#C/C(=C1C=C(Br)/C(=N\O)C=C\1Cl)c1cccc2ccccc12
inactive: [1] 98 % of control | [2] 95 % of control | [3] 93 % of control | [4] 90 % of control | [5] 94 % of control | [6] 104 % of control

CCOC(=O)Nc1cc(Nc2ccc(Cl)cc2)c2nc(-c3ccc(Cl)cc3)c(-c3ccc(Cl)cc3)nc2n1
inactive: [22] 104 % of control | [23] 101 % of control | [16] 98 % of control
